Results taken from US20260285853A1, “COMPOUNDS AND METHODS FOR MODULATING SPLICING” (REMIX THERAPEUTICS INC., priority 2023, published 2026).

How the values were obtained:
Type in all cases: cell-based
[1] = test system: SH-SY5Y (human neuroblastoma) cells; test: Cell viability, Cell Titer Glo 2.0 assay; conditions: read-out: Viability SHSY5Y.3 GI50
Procedure, shortened: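 CellTiter-Glo 2.0 luminescence read-out after 72 h compound exposure (37 °C, 5% CO2); medium-only wells as blank. DMSO 0.1% final.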

[2] = test system: HTT mRNA; test: Splicing RT-qPCR assay (THP), Table 2A; conditions: Table 2A (THP); for AC50: AJ mRNA increase, read-out: HTT AJ (increase in alternative junction mRNA, AC50); for IC50: CJ mRNA decrease, read-out: HTT CJ (decrease in canonical junction mRNA, IC50)
[3] = test system: HTT mRNA; test: Splicing RT-qPCR assay, canonical (CJ) and alternative (AJ) junction mRNA, K562 cells; conditions: Homo sapiens, K562.3 cells, 24 hours; for AC50: read-out: HTT AJ (AC50, increase in AJ mRNA); for IC50: read-out: HTT CJ (IC50, decrease in CJ mRNA)
Procedure, shortened: (§1)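 RT-qPCR read-out: CJ and AJ isoforms quantified by ΔCt against GAPDH or GUSB, normalized to DMSO, and converted to % response. Windows in 96-well format (50,000 cells/well) were 4.0 ΔCt for MYB-CJ and 3 for MYB-AJ, and 3.5 ΔCt for HTT-CJ and 9 for HTT-AJ. Cells were dosed for 24 h, top 10 uM.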

[4] = test system: MYB mRNA; test: as above; conditions: Homo sapiens, K562.3 cells, 24 hours; for AC50: read-out: MYB AJ (AC50, increase in AJ mRNA); for IC50: read-out: MYB CJ (IC50, decrease in CJ mRNA)
Procedure, shortened: as §1

[5] = test system: MYB mRNA; test: Splicing RT-qPCR assay (THP), Table 2A; conditions: Table 2A (THP); for AC50: AJ mRNA increase, read-out: MYB AJ (increase in alternative junction mRNA, AC50); for IC50: CJ mRNA decrease, read-out: MYB CJ (decrease in canonical junction mRNA, IC50)

Structure (SMILES)	GI50 [1] [nM]	IC50 [2] [nM]	IC50 [3] [nM]	IC50 [4] [nM]	IC50 [5] [nM]	AC50 [2] [nM]	AC50 [3] [nM]	AC50 [4] [nM]	AC50 [5] [nM]
Cn1cc2cc(NC(=O)c3c(O)cc(N4CC[C@@H](NC5CC5)C4)c4cn(C)nc34)cc(F)c2n1 [Compound 291, 4-[(3R)-3-(cyclopropylamino)pyrrolidin-1-yl]-N-(7-fluoro-2-methyl-indazol-5-yl)-6-hydroxy-2-methyl-indazole-7-carboxamide]	100 to 1000	> 10000	1000 to 10000	< 100	< 100	1000 to 10000	1000 to 10000	< 100	< 100
Cc1cn2cc(NC(=O)c3ccc(N4CCC(NC5CC5)CC4)c4cc(C)oc34)cc(F)c2n1 [Compound 185, 4-[4-(cyclopropyl-amino)-1-piperidyl]-N-(8-fluoro-2-methyl-imidazo[1,2-a]pyridin-6-yl)-2-methyl-benzofuran-7-carboxamide]	100 to 1000	1000 to 10000	1000 to 10000	100 to 1000	100 to 1000	1000 to 10000	1000 to 10000	100 to 1000	< 100
CCNC1CCN(c2ccc(C(=O)Nc3cc(F)c4nc(C)cn4c3)c3c2nnn3C)CC1 [Compound 198, 4-(4-(ethylamino)piperidin-1-yl)-N-(8-fluoro-2-methylimidazo[1,2-a]pyridin-6-yl)-1-methyl-1H-benzo[d][1,2,3]triazole-7-carboxamide 2,2,2-trifluoroacetate]	> 10000	> 10000	> 10000	> 10000	> 10000	> 10000	> 10000	> 10000	> 10000
CCNC1CCN(c2ccc(C(=O)Nc3cc(F)c4nc(COC)cn4c3)c3nn(C)cc23)CC1 [Compound 284, 4-[4-(ethylamino)-1-piperidyl]-N-[8-fluoro-2-(methoxymethyl)imidazo[1,2-a]pyridin-6-yl]-2-methyl-indazole-7-carboxamide]	> 10000	> 10000	1000 to 10000	1000 to 10000	> 10000	> 10000	> 10000	1000 to 10000	1000 to 10000
COc1nc2c(C(=O)Nc3cc(F)c4nc(C)cn4c3)ccc(N3CCC(N)CC3)c2s1 [Compound 208, 7-(4-aminopiperidin-1-yl)-N-(8-fluoro-2-methylimidazo[1,2-a]pyridin-6-yl)-2-methoxybenzo[d]thiazole-4-carboxamide]	< 100	< 100	100 to 1000	< 100	< 100	100 to 1000	100 to 1000	< 100	< 100
CNC1(C)CCN(c2cc(F)c(C(=O)Nc3cn4cc(C)nc4c(F)c3OC)c3nn(C)cc23)CC1 [Compound 180, 6-fluoro-N-(8-fluoro-7-methoxy-2-methyl-imidazo[1,2-a]pyridin-6-yl)-2-methyl-4-[4-methyl-4-(methylamino)-1-piperidyl]indazole-7-carboxamide]	< 100	< 100	< 100	< 100	< 100	< 100	< 100	< 100	< 100
CCNC1CCN(c2ccc(C(=O)Nc3cc(F)c4nc(CO)cn4c3)c3nn(C)cc23)CC1 [Compound 193, 4-[4-(ethylamino)-1-piperidyl]-N-[8-fluoro-2-(hydroxymethyl)imidazo[1,2-a]pyridin-6-yl]-2-methyl-indazole-7-carboxamide]	1000 to 10000	1000 to 10000	> 10000	100 to 1000	100 to 1000	1000 to 10000	> 10000	1000 to 10000	100 to 1000
Cc1cn2cc(NC(=O)c3ccc(N4C[C@H](C)N[C@@H](C)C4)c4[nH]cnc34)cc(F)c2n1 [Compound 221, 7-[(3S,5S)-3,5-dimethylpiperazin-1-yl]-N-(8-fluoro-2-methylimidazo[1,2-a]pyridin-6-yl)-1H-1,3-benzodiazole-4-carboxamide]	1000 to 10000	1000 to 10000	> 10000	100 to 1000	100 to 1000	1000 to 10000	> 10000	100 to 1000	100 to 1000
Cc1cn2cc(NC(=O)c3ccc(C4CCC(NC5CC5)CC4)c4cn(C)nc34)cc(F)c2n1 (stereo not drawn) [Compound 192, 4-[4-(cyclopropylamino)cyclohexyl]-N-(8-fluoro-2-methyl-imidazo[1,2-a]pyridin-6-yl)-2-methyl-indazole-7-carboxamide]	100 to 1000	1000 to 10000	100 to 1000	100 to 1000	100 to 1000	1000 to 10000	1000 to 10000	100 to 1000	100 to 1000

More lines, main results first:

GI50 [1] [nM]	IC50 [2] [nM]	IC50 [3] [nM]	IC50 [4] [nM]	IC50 [5] [nM]	Structure (SMILES)	AC50 [2] [nM]	AC50 [3] [nM]	AC50 [4] [nM]	AC50 [5] [nM]
1000 to 10000	1000 to 10000	1000 to 10000	100 to 1000	100 to 1000	Cc1cn2cc(NC(=O)c3ccc(C4CNCCO4)c4[nH]cnc34)cc(F)c2n1 (stereo not drawn) [Compound 194, N-(8-fluoro-2-methyl-imidazo[1,2-a]pyridin-6-yl)-7-morpholin-2-yl-1H-benzimidazole-4-carboxamide]	> 10000	1000 to 10000	100 to 1000	100 to 1000
1000 to 10000	> 10000	> 10000	100 to 1000	100 to 1000	CCNC1CCN(c2ccc(C(=O)Nc3cc(F)c4nc(C)cn4c3)c3nnn(C)c23)CC1 [Compound 199, 7-[4-(ethylamino)-1-piperidyl]-N-(8-fluoro-2-methylimidazo[1,2-a]-pyridin-6-yl)-1-methylbenzotriazole-4-carboxamide]	> 10000	> 10000	100 to 1000	100 to 1000
> 10000	> 10000	> 10000	> 10000	> 10000	Cc1cn2cc(NC(=O)c3ccc(N4CCNCC4=O)c4[nH]cnc34)cc(F)c2n1 [Compound 257, N-(8-fluoro-2-methyl-imidazo[1,2-a]-pyridin-6-yl)-7-(2-oxopiperazin-1-yl)-1H-benzimidazole-4-carboxamide]	> 10000	> 10000	> 10000	> 10000
100 to 1000	100 to 1000	100 to 1000	100 to 1000	100 to 1000	Cc1cn2nc(NC(=O)c3ccc(N4CCC(NC5CC5)CC4)c4cn(C)nc34)cc(C)c2n1 [Compound 187, 4-[4-(cyclopropylamino)-1-piperidyl]-N-(2,8-dimethylimidazo-[1,2-b]pyridazin-6-yl)-2-methyl-indazole-7-carboxamide]	100 to 1000	100 to 1000	100 to 1000	100 to 1000
100 to 1000	> 10000	1000 to 10000	100 to 1000	100 to 1000	CCNC1CCN(c2ccc(C(=O)Nc3ccc4nc(C)cn4c3)c3nn(C)cc23)CC1 [Compound 176, 4-[4-(ethylamino)-1-piperidyl]-2-methyl-N-(2-methylimidazo[1,2-a]pyridin-6-yl)-indazole-7-carboxamide]	1000 to 10000	> 10000	100 to 1000	100 to 1000
100 to 1000	1000 to 10000	1000 to 10000	100 to 1000	100 to 1000	Cc1cn2cc(NC(=O)c3ccc(N4CCC(NC5CC5)CC4)c4ccoc34)cc(F)c2n1 [Compound 191, 4-[4-(cyclopropylamino)-1-piperidyl]-N-(8-fluoro-2-methyl-imidazo[1,2-a]pyridin-6-yl) benzofuran-7-carboxamide]	1000 to 10000	1000 to 10000	100 to 1000	< 100
> 10000	> 10000	1000 to 10000	1000 to 10000	100 to 1000	COCC1(N[C@H]2CCN(c3ccc(C(=O)Nc4cc(F)c5nc(C)cn5c4)c4nn(C)cc34)C2)CC1 [Compound 118, (S)—N-(8-fluoro-2-methylimidazo[1,2-a]pyridin-6-yl)-4-(3-((1-(methoxymethyl)cyclopropyl)amino)pyrrolidin-1-yl)-2-methyl-2H-indazole-7-carboxamide]	> 10000	> 10000	1000 to 10000	1000 to 10000
1000 to 10000	1000 to 10000	1000 to 10000	100 to 1000	100 to 1000	CO[C@H]1C[C@@H](N[C@H]2CCN(c3ccc(C(=O)Nc4cc(F)c5nc(C)cn5c4)c4nn(C)cc34)C2)C1 [Compound 277, N-(8-fluoro-2-methylimidazo[1,2-a]pyridin-6-yl)-4-((S)-3-(((1s,3R)-3-methoxy-cyclobutyl)amino)pyrrolidin-1-yl)-2-methyl-2H-indazole-7-carboxamide]	1000 to 10000	< 100	100 to 1000	100 to 1000
